Where a name gives a salt, the structure may show the parent alone.

Common to all, as to assay type: biochemical
Assay [1] concerns the target MASP-2 (CCP1-CCP2-SP) (Homo sapiens (Human), UniProt O00187). In words: Enzymatic Assay for MASP-2 (fluorogenic substrate).
Assay [2] concerns Lectin Pathway. In words: Lectin Pathway Activation Assay in Human Serum (mannan-coated ELISA, C3c detection). To be noted: 1% human serum. How it is done: Microtiter ELISA plate was coated with mannan from Saccharomyces cerevisiae (Sigma-Aldrich, M7504) for overnight at 4° C. in coating buffer [15 mM Na2CO3, 35 mM NaHCO3].
On the technique in general: ELISA stands for enzyme-linked immunosorbent assay.

Assay [3] has as its target human α-thrombin (Homo sapiens (Human), UniProt P00734). In words: Enzymatic Assay for Thrombin (Boc-VPR-AMC).

MASP-2 (CCP1-CCP2-SP), sequence (O00187 445-686): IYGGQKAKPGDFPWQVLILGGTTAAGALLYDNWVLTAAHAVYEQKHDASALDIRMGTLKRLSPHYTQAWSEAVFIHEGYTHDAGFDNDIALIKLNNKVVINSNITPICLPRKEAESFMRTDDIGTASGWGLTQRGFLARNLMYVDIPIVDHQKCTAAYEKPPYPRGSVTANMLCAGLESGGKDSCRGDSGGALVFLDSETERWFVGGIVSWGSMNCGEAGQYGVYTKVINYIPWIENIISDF

As a reminder, the Ki is the equilibrium dissociation constant of an inhibitor or competing ligand from its target. Low readings indicate a stronger hold on the target, high ones a looser hold on the target. As a reminder, the IC50 is the concentration that inhibits the measured activity by half. Higher therefore signals a need for much substance. As to `COc1cc(C[C@@H]2CN[C@@H](C(=O)N[C@@H](C)C(=O)NCc3cc(Cl)ccc3-n3cnnn3)C2)cc(OC)c1` [compound 1419, (2R,4S)—N—((S)-1-((5-Chloro-2-(1H-tetrazol-1-yl)benzyl)amino)-1-oxopropan-2-yl)-4-(3,5-dimethoxybenzyl)pyrrolidine-2-carboxamide Trifluoroacetate salt], the Ki in assay [1] and in assay [3] was under 500 nM each time. Also, in assay [2], the IC50 is under 50 nM.

For the origin of these results see US12195427B2, “MASP-2 inhibitors and methods of use” (priority 2018, dated 2025).
